Assays:
melanoma B 16 = test: B 16 melanoma in mice, intraabdominal administration; format: in vivo, mice of the line C 57Bl; details: 5 mg/kg intraabdominally
Protocol: The melanoma B 16 was implanted in 20 mice of the line C 57Bl by subcutaneous injection into the right thigh. The animals were divided into four groups of five mice each. Group I received complex A at a dosage of 7 mg/kg, dissolved in DMSO, which was administered intraabdominally in a 4% suspension in physiological saline. Each administration was performed 3, 5, 7 and 9 days after trans-plantation of the tumor.
Group II was treated as group I, but using a dosage of 5 mg/kg.
Group III was treated as group I, but received 5 mg/kg of melphalan hydrochloride instead of complex A.
Group IV remained untreated.

[1] = test system: colon adenocarcinoma tumor (AKATOL); test: Transplanted colon adenocarcinoma (AKATOL), peroral administration; format: in vivo, mice of the BALB line; details: 10 mg/kg peroral in olive oil
Protocol: Tumor cells were transplanted in mice of the BALB line by injection into the thighs. 3 of 4 groups received the respective preparation on the peroral route 3, 4, 5, 6, 7, 8, 9 and 10 days after tumor implantation.
Group I: 10 mg/kg complex A suspended in olive oil.
Group II: 5 mg/kg complex A suspended in olive oil.
Group III: 10 mg/kg sarcolysine suspended in olive oil.
On day 21 of the experiment the animals were sacrificed and examined.

[2] = test system: Ehrlich ascites adenocarcinoma; test: Ehrlich ascites adenocarcinoma in mice; format: in vivo, white mice
Protocol: The tumor was implanted intraabdominally in white mice of no particular race.
Group I received complex A orally as a suspension in olive oil at a dosage of 10 mg/kg 3, 4, 5, 6, 7, 8, 9 and 10 days after tumor implantation.
Group II received the same treatment, but using sarcolysine instead of complex A.
Group III received no treatment.
The animals were sacrificed and examined on the 11th day after tumor implantation.

neutrophils = test: Antioxidant properties: ROS formation in neutrophils; format: cell-based, male mice of the NMRI line; details: triggered by PMA and fMLF, depending on the dosage
From the text: The complexes A and C show a pronounced effect as antioxidant in an environment having an excess of reactive oxygen species (ROS). Thus, ROS formation in neutrophils obtained from male mice of the NMRI line was triggered by two activators: phorbol 12-myristate 13-acetate (PMA) and N-formyl-methionyl-leucylphenylalanine (fMLF).

[3] = test system: human mammary gland tumor cells, T2N1M0 stage; test: In vitro effect on human mammary gland tumor cells, Experiment 1; format: cell-based
Protocol: (§1) Tumor cells were collected from the surgical material of female patients suffering from mammary carcinoma at two different stages. The tumor tissue was added with sterile 0.25% trypsin solution and centrifuged repeatedly in RPMI-1640 nutrient medium for 15 minutes at 1500 revolutions per minute. The amount of resulting cells was counted and the suspension of tumor cells divided into five equal groups. The RPMI-1640 nutrient medium was added with 12% fetal calf serum. The cells were incubated for 48 h at 37° C. in a 5% CO2 stream.
(§2) The preparations were dissolved in 4% DMSO and physiological saline and acidified with HCl.
(§3) Two experiments were performed using cancer cells derived from tumors of different stages. To differentiate the various stages of cancer, the TNM classification is used internationally which takes into account the tumor size (T), lymph node affection (N=nodal status) and the extent of metastasis (M).
(T2: tumor up to 5 cm; N1; metastases in 3 lymph nodes; M0: no distant metastases). A suspension including 40 million cells was added with 50 μl of each preparation.
(§4) The 5 groups with cancer cells received the following:
(§5) After subjecting the preparations to flow incubation for 60 minutes, trypan blue stained cells were produced, and dead cells and apoptosis could be determined; dead cells and apoptotic cells were determined in specific units of time and morphological findings.

[4] = test system: human mammary gland tumor cells, T4N2M0 stage; test: In vitro effect on human mammary gland tumor cells, Experiment 2; format: cell-based
Protocol: as §1, §2, §3
(T3: large tumor spreading into the tissue surrounding the breast; N2: metastases up to 9 axillary lymph nodes, M0: no distant metastases). A suspension including 40 million cells was added with 50 μl of each preparation.
as §4, §5

`NC(Cc1ccc(N(CCCl)CCCl)cc1)C(=O)O` (racemic) [sarcolysine, 4-[bis(2-chloroethyl)amino]-D,L-phenylalanine, reference compound] was tested, and the “Apoptotic index AI” value (melanoma B 16) was 3.07 ‰, the “Bone marrow index MI BM” value (melanoma B 16) was 1.88 ‰ and the “Inhibition of tumor growth, mass percent” value (melanoma B 16) was “mass percent 62.87%”. For the same compound, the “Inhibition of tumor growth, volume percent” value (melanoma B 16) was “volume percent 35.78%”, the “Mitotic index of tumor cells MI” value (melanoma B 16) was 2.43 ‰ and the “Average volume of tumor” value (melanoma B 16; days 3, 5, 7, 9) was 1.4 cm^3. The “Average weight of tumor” value (melanoma B 16; days 3, 5, 7, 9) was 482.6 mg, the “% inhibition” value [1] was 43% and the “Average weight of tumor” value ([1]; days 3 to 10, day 21) was 1.85 g. The “% inhibition” value ([2]; 10 mg/kg orally) was 47.4%, the “Average MI of bone marrow” value ([2]; 10 mg/kg orally) was 0.52 ± 0.26 ‰ and the “Average MI of tumor cells” value ([2]; 10 mg/kg orally) was 2.0 ± 1.87 ‰. The “Average number of tumor cells” value ([2]; 10 mg/kg orally in olive oil, days 3 to 10, day 11) was 77 10^6, the “formation of ROS in neutrophils” value (neutrophils) was “hardly achieved” and the “Living cells, %” value ([3]; Experiment 1, T2N1M0) was 54.0 ± 2.22%. For the same compound, the “Dead cells, %” value ([3]; Experiment 1, T2N1M0, 40 million cells, 50 μl of preparation) was 46.0 ± 2.22%, the “Living cells, %” value ([4]; Experiment 2, T4N2M0) was 51.0 ± 2.23% and the “Dead cells, %” value ([4]; Experiment 2, T4N2M0, 40 million cells, 50 μl of preparation) was 49.0 ± 2.23%.

For `O=c1[nH]c(=O)n(C2CCCO2)cc1F` (stereo not shown) [tegafur, N-(2-furanidil)-5-fluorouracil, reference compound], the “formation of ROS in neutrophils” value (neutrophils) was “hardly achieved”.

— patent US20110077230A1, “COPPER ORGANOCOMPLEXES, USE THEREOF AS ANTITUMOR MEANS AND FOR PROTECTING HEALTHY TISSUE FROM IONIZING RADIATION” (CHARITE - UNIVERSITATSMEDIZIN BERLIN, priority 2008, published 2011)
